Laboratory results published in the supplement of paper PMC11451515.

What was measured:
Conditions in all cases: 48 h
P12-Ichikawa [1] = experiment: AUC of viability dose-response curve (% viability x log10 dose units); higher = less sensitive
Method in brief: (§1)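 Leukemia cells adapted to each medium were seeded in 1536-well plates (500 or 1000 cells/well) and given library compounds in DMSO for 48 h at 37°C. The 11 threefold doses spanned 47 μM to 0.79 nM, and CellTiter-Glo One luminescence was normalised per plate to DMSO and cell-free wells before four-parameter log-logistic fitting on log10 dose. Area under the curve was integrated with the trapezoidal rule, scaling curves above full viability and removing curves that failed quality control.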

SEM cells [2] = experiment: as above
Method in brief: as §1

NOMO1 [3] = experiment: as above
Method in brief: as §1

P12-Ichikawa [4] = experiment: cell viability relative to DMSO control; higher = less cytotoxic
Method in brief: (§2)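 Leukemia cells (NOMO1 or SEM, 500 cells/well; P12-Ichikawa, 1000 cells/well) were seeded in 5 μl in 1536-well plates after at least four passages of adaptation to each medium. They received library compounds in DMSO by pin dosing, 11 threefold points from 47 μM to 0.79 nM. Luminescence with CellTiter-Glo One was read after 48 h at 37°C. Viability is stated per plate relative to DMSO wells, with cell-free wells as background.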

SEM cells [5] = experiment: as above
Method in brief: as §2

NOMO1 [6] = experiment: as above
Method in brief: as §2

[7] = RPMI 5 mM glucose + 10% dialyzed FBS
[8] = HPLM + 10% dialyzed FBS, 0.000781 µM
[9] = HPLM + 10% dialyzed FBS, 0.00234 µM
[10] = HPLM + 10% dialyzed FBS, 0.00702 µM
[11] = HPLM + 10% dialyzed FBS, 0.0211 µM
[12] = HPLM + 10% dialyzed FBS, 0.0632 µM
[13] = HPLM + 10% dialyzed FBS, 0.19 µM
[14] = HPLM + 10% dialyzed FBS, 0.569 µM
[15] = HPLM + 10% dialyzed FBS, 1.71 µM
[16] = HPLM + 10% dialyzed FBS, 5.12 µM
[17] = HPLM + 10% dialyzed FBS, 15.4 µM
[18] = HPLM + 10% dialyzed FBS, 46.1 µM
[19] = RPMI 5 mM glucose + 10% FBS, 0.000781 µM
[20] = RPMI 5 mM glucose + 10% FBS, 0.00234 µM
[21] = RPMI 5 mM glucose + 10% FBS, 0.00702 µM
[22] = RPMI 5 mM glucose + 10% FBS, 0.0211 µM
[23] = RPMI 5 mM glucose + 10% FBS, 0.0632 µM
[24] = RPMI 5 mM glucose + 10% FBS, 0.19 µM
[25] = RPMI 5 mM glucose + 10% FBS, 0.569 µM
[26] = RPMI 5 mM glucose + 10% FBS, 1.71 µM
[27] = RPMI 5 mM glucose + 10% FBS, 5.12 µM
[28] = RPMI 5 mM glucose + 10% FBS, 15.4 µM
[29] = RPMI 5 mM glucose + 10% FBS, 46.1 µM
[30] = RPMI 5 mM glucose + 10% dialyzed FBS, 0.000781 µM
[31] = RPMI 5 mM glucose + 10% dialyzed FBS, 0.00234 µM
[32] = RPMI 5 mM glucose + 10% dialyzed FBS, 0.00702 µM
[33] = RPMI 5 mM glucose + 10% dialyzed FBS, 0.0211 µM
[34] = RPMI 5 mM glucose + 10% dialyzed FBS, 0.0632 µM
[35] = RPMI 5 mM glucose + 10% dialyzed FBS, 0.19 µM
[36] = RPMI 5 mM glucose + 10% dialyzed FBS, 0.569 µM
[37] = RPMI 5 mM glucose + 10% dialyzed FBS, 1.71 µM
[38] = RPMI 5 mM glucose + 10% dialyzed FBS, 5.12 µM
[39] = RPMI 5 mM glucose + 10% dialyzed FBS, 15.4 µM
[40] = RPMI 5 mM glucose + 10% dialyzed FBS, 46.1 µM

In the case of `COc1cc(N2CCN(C)CC2)ccc1Nc1nc(N)c(C(=O)c2c(Cl)cccc2Cl)s1`, the “AUC of viability dose-response curve” value (P12-Ichikawa [1]; HPLM + 10% dialyzed FBS) was 457, the “AUC of viability dose-response curve” value (P12-Ichikawa [1]; RPMI 5 mM glucose + 10% FBS) was 454 and the “AUC of viability dose-response curve” value (P12-Ichikawa [1]; [7]) was 456. For the same compound, the “AUC of viability dose-response curve” value (SEM cells [2]; HPLM + 10% dialyzed FBS) was 425, the “AUC of viability dose-response curve” value (SEM cells [2]; RPMI 5 mM glucose + 10% FBS) was 422 and the “AUC of viability dose-response curve” value (SEM cells [2]; [7]) was 444. For the same compound, the “AUC of viability dose-response curve” value (NOMO1 [3]; HPLM + 10% dialyzed FBS) was 456, the “AUC of viability dose-response curve” value (NOMO1 [3]; RPMI 5 mM glucose + 10% FBS) was 467 and the “AUC of viability dose-response curve” value (NOMO1 [3]; [7]) was 467. For the same compound, the cell viability (P12-Ichikawa [4]; [8]) was 111%, the cell viability (P12-Ichikawa [4]; [9]) was 118% and the cell viability (P12-Ichikawa [4]; [10]) was 106%. For the same compound, the cell viability (P12-Ichikawa [4]; [11]) was 113%, the cell viability (P12-Ichikawa [4]; [12]) was 111% and the cell viability (P12-Ichikawa [4]; [13]) was 108%. The cell viability (P12-Ichikawa [4]; [14]) was 112%, the cell viability (P12-Ichikawa [4]; [15]) was 103% and the cell viability (P12-Ichikawa [4]; [16]) was 105%. The cell viability (P12-Ichikawa [4]; [17]) was 96.2%, the cell viability (P12-Ichikawa [4]; [18]) was 50.2% and the cell viability (P12-Ichikawa [4]; [19]) was 119%. The cell viability (P12-Ichikawa [4]; [20]) was 117%, the cell viability (P12-Ichikawa [4]; [21]) was 125% and the cell viability (P12-Ichikawa [4]; [22]) was 110%. For the same compound, the cell viability (P12-Ichikawa [4]; [23]) was 114%, the cell viability (P12-Ichikawa [4]; [24]) was 111% and the cell viability (P12-Ichikawa [4]; [25]) was 115%. For the same compound, the cell viability (P12-Ichikawa [4]; [26]) was 105%, the cell viability (P12-Ichikawa [4]; [27]) was 101% and the cell viability (P12-Ichikawa [4]; [28]) was 99.5%. The cell viability (P12-Ichikawa [4]; [29]) was 50.5%, the cell viability (P12-Ichikawa [4]; [30]) was 120% and the cell viability (P12-Ichikawa [4]; [31]) was 120%. For the same compound, the cell viability (P12-Ichikawa [4]; [32]) was 131%, the cell viability (P12-Ichikawa [4]; [33]) was 117% and the cell viability (P12-Ichikawa [4]; [34]) was 112%. The cell viability (P12-Ichikawa [4]; [35]) was 117%, the cell viability (P12-Ichikawa [4]; [36]) was 119% and the cell viability (P12-Ichikawa [4]; [37]) was 114%. It also gave a cell viability (P12-Ichikawa [4]; [38]) of 115%, a cell viability (P12-Ichikawa [4]; [39]) of 101% and a cell viability (P12-Ichikawa [4]; [40]) of 54.3%. The cell viability (SEM cells [5]; [8]) was 109%, the cell viability (SEM cells [5]; [9]) was 118% and the cell viability (SEM cells [5]; [10]) was 124%. The cell viability (SEM cells [5]; [11]) was 111%, the cell viability (SEM cells [5]; [12]) was 108% and the cell viability (SEM cells [5]; [13]) was 116%. For the same compound, the cell viability (SEM cells [5]; [14]) was 111%, the cell viability (SEM cells [5]; [15]) was 93.7% and the cell viability (SEM cells [5]; [16]) was 88.9%. It also gave a cell viability (SEM cells [5]; [17]) of 78.4%, a cell viability (SEM cells [5]; [18]) of 24.5% and a cell viability (SEM cells [5]; [19]) of 118%. For the same compound, the cell viability (SEM cells [5]; [20]) was 121%, the cell viability (SEM cells [5]; [21]) was 117% and the cell viability (SEM cells [5]; [22]) was 108%. The cell viability (SEM cells [5]; [23]) was 101%, the cell viability (SEM cells [5]; [24]) was 109% and the cell viability (SEM cells [5]; [25]) was 105%. The cell viability (SEM cells [5]; [26]) was 110%, the cell viability (SEM cells [5]; [27]) was 85.7% and the cell viability (SEM cells [5]; [28]) was 68.4%. It also gave a cell viability (SEM cells [5]; [29]) of 3.88%, a cell viability (SEM cells [5]; [30]) of 112% and a cell viability (SEM cells [5]; [31]) of 105%. It also gave a cell viability (SEM cells [5]; [32]) of 122%, a cell viability (SEM cells [5]; [33]) of 116% and a cell viability (SEM cells [5]; [34]) of 116%. It also gave a cell viability (SEM cells [5]; [35]) of 114%, a cell viability (SEM cells [5]; [36]) of 110% and a cell viability (SEM cells [5]; [37]) of 106%. It also gave a cell viability (SEM cells [5]; [38]) of 122%, a cell viability (SEM cells [5]; [39]) of 85.7% and a cell viability (SEM cells [5]; [40]) of 13.3%. For the same compound, the cell viability (NOMO1 [6]; [8]) was 117%, the cell viability (NOMO1 [6]; [9]) was 105% and the cell viability (NOMO1 [6]; [10]) was 119%. For the same compound, the cell viability (NOMO1 [6]; [11]) was 105%, the cell viability (NOMO1 [6]; [12]) was 110% and the cell viability (NOMO1 [6]; [13]) was 116%. For the same compound, the cell viability (NOMO1 [6]; [14]) was 126%, the cell viability (NOMO1 [6]; [15]) was 128% and the cell viability (NOMO1 [6]; [16]) was 107%. It also gave a cell viability (NOMO1 [6]; [17]) of 89%, a cell viability (NOMO1 [6]; [18]) of 82.7% and a cell viability (NOMO1 [6]; [19]) of 107%. The cell viability (NOMO1 [6]; [20]) was 117%, the cell viability (NOMO1 [6]; [21]) was 103% and the cell viability (NOMO1 [6]; [22]) was 98.7%. The cell viability (NOMO1 [6]; [23]) was 103%, the cell viability (NOMO1 [6]; [24]) was 118% and the cell viability (NOMO1 [6]; [25]) was 102%. It also gave a cell viability (NOMO1 [6]; [26]) of 105%, a cell viability (NOMO1 [6]; [27]) of 104% and a cell viability (NOMO1 [6]; [28]) of 98.6%. For the same compound, the cell viability (NOMO1 [6]; [29]) was 87.3%, the cell viability (NOMO1 [6]; [30]) was 108% and the cell viability (NOMO1 [6]; [31]) was 107%. The cell viability (NOMO1 [6]; [32]) was 108%, the cell viability (NOMO1 [6]; [33]) was 116% and the cell viability (NOMO1 [6]; [34]) was 96.6%. The cell viability (NOMO1 [6]; [35]) was 114%, the cell viability (NOMO1 [6]; [36]) was 103% and the cell viability (NOMO1 [6]; [37]) was 109%. For the same compound, the cell viability (NOMO1 [6]; [38]) was 102%, the cell viability (NOMO1 [6]; [39]) was 105% and the cell viability (NOMO1 [6]; [40]) was 89.7%.
